Source: patent publication US20130225529A1, “PHOSPHO-ESTER DERIVATIVES AND USES THEREOF” (priority 2012, published 2013)

Tests used:
[1] = Biodistribution of liposomal phospho-ibuprofen amide in mice; type: in vivo
[2] = test system: A549 human non-small lung cancer cells; assay: Orthotopic A549 lung tumor model in nude mice; type: in vivo
[3] = type: in vivo, mice; conditions: 55° C. hot plate, 30 min after single i.p. dose; 100 mg/kg, PI-PEG 1,600 mg/kg; control 1.91 ± 0.46
[4] = test system: AGS human gastric cancer cells; type: in vivo, mice; conditions: i.p. in corn oil, 3 weeks; PSA-B 200, PSA-G 200, PIA-B 160, PVA-T 100 mg/kg
[5] = test system: A431 human squamous cell carcinoma cells; type: in vivo, mice; conditions: hydrogel, topical, 2 weeks, estimated 80 mg/kg
[6] = test system: MDA-MB-231; assay: Cell viability (MTT), MDA-MB-231; type: cell-based; conditions: Homo sapiens, MDA-MB-231, 72 h
[7] = test system: HT29; assay: Cell viability (MTT), HT29; type: cell-based; conditions: Homo sapiens, HT-29; HT29, 72 h
[8] = test system: A549 cells; assay: Cell proliferation by BrdU staining; type: cell-based, human; conditions: 60 μM (indomethacin equimolar)
[9] = test system: SW480 cells; assay: Cell cycle by PI staining; type: cell-based, human; conditions: 1×IC50 PTI; indomethacin at equimolar concentration; control 56.8
[10] = test system: A549 cells; assay: Apoptosis by annexin V and PI staining; type: cell-based, human; conditions: 72 h, control 7.5%
Experimental: After the A549 cells were treated with the test drug in 6-well plates for 72 h, all cell populations (suspended and attached) were collected and stained with annexin V-FITC and propidium iodide (PI) (Invitrogen, Carlsbad, Calif.) for 15 min. Annexin V-FITC and PI fluorescence intensities were analyzed by flow cytometry with a FACScalibur. Annexin V(+)/PI(−) cells are early apoptotic cells; annexin V(+)/PI(+) cells are late apoptotic cells; and annexin V(−)/PI(+) cells are necrotic cells.

[11] = test system: A549 cells; assay: Cellular uptake of PTI and indomethacin; type: in vitro ADME, human
Experimental: A549 cells were seeded in […] plates and allowed to grow as a monolayer. […] The incubation was terminated by washing the cell monolayer with complete medium and PBS. The cells were harvested by scraping, extracted by two-fold volume of acetonitrile and centrifuged at 13,000 rpm for 5 min. Drug levels were determined by HPLC.

[12] = Cardiotoxicity, heart tissue histology; type: in vivo, mice; conditions: treated for 1.5 months, H&E
Source text: Heart tissue sections from mice treated with PTI for 1.5 months were examined and scored histologically, following H&E staining and light microscopy for tissue damage and for the presence of inflammatory cells.

[13] = test system: A549 human non-small cell lung cancer xenografts; assay: A549 lung cancer xenografts, treatment protocol, PTI; type: in vivo, mice; conditions: 2 weeks, vs control
Experimental: Lung cancer treatment protocol: A549 cells (1.5×106) suspended in 100 μl of PBS (25% Hydrogel) were injected subcutaneously into both the left and right flanks of 5-6-week old female NOD SCID mice (Taconic Farms, Germantown, N.Y.). When the average tumor volume reached 100 mm3, the mice were divided into 3 groups: vehicle, PTI 10 mg/kg/d, and PTI 15 mg/kg/d (n=10/group); treatment lasted 2 weeks. At the end of the treatment, animals were euthanized and the xenografts were harvested.

[14] = test system: SW480 colon cancer cells; assay: SW480 colon cancer xenografts, prevention protocol, PTI; type: in vivo, mice; conditions: oral gavage; PTI 10 mg/kg/d, indomethacin 2 mg/kg/d; end of study
[15] = test system: A549 xenografts; assay: Immunohistochemistry of A549 xenografts (PCNA, TUNEL); type: in vivo, mice
Experimental: (§1) Staining for PCNA and p-p65 (Ser276) was performed as described. Apoptosis was determined immunohistochemically by the terminal deoxynucleotidyl transferase-mediated deoxyuridine triphosphate-biotin nick end-labeling (TUNEL) assay.

[16] = test system: p65 subunit of NF-κB; assay: NF-κB activation in A549 xenografts (p-p65 Ser276); type: in vivo, mice; conditions: vs controls
Experimental: as §1
To further explore the mechanism of action of PTI, we investigated the activation of NF-κB in the A549 lung tumor xenografts from the control and PTI-treated groups, by determining Ser276 phosphorylation of the p65 subunit of NF-κB. A shown in FIG. 28, compared to controls, PTI decreased the levels of p-p65 Ser276 in tumor xenografts by 90.0% (p=0.004).

[17] = biological target: T1, COX-1 (Ovis aries, UniProt P05979); assay: COX fluorescent inhibitor screening assay, COX-1; type: biochemical
T1 construct: purchased Cayman Chemical Co
T1 sequence (P05979 25-600): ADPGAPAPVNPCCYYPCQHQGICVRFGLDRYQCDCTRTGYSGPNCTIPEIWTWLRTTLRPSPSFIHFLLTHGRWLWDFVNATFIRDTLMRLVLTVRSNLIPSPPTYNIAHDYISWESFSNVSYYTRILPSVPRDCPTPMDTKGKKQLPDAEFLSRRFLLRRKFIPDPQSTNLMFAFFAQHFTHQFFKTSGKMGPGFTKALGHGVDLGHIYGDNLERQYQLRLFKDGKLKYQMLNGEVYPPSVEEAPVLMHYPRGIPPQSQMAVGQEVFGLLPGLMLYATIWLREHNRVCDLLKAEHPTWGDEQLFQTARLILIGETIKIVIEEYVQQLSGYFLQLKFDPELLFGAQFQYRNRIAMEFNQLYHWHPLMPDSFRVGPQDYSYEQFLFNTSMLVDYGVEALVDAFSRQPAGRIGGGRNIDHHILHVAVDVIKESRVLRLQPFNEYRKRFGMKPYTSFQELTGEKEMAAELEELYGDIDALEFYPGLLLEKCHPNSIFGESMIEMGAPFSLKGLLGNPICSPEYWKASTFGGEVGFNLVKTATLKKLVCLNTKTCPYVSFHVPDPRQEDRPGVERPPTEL

[18] = biological target: COX-2 (Homo sapiens, UniProt P35354); assay: COX fluorescent inhibitor screening assay, COX-2; type: biochemical
COX-2, sequence (P35354 18-604): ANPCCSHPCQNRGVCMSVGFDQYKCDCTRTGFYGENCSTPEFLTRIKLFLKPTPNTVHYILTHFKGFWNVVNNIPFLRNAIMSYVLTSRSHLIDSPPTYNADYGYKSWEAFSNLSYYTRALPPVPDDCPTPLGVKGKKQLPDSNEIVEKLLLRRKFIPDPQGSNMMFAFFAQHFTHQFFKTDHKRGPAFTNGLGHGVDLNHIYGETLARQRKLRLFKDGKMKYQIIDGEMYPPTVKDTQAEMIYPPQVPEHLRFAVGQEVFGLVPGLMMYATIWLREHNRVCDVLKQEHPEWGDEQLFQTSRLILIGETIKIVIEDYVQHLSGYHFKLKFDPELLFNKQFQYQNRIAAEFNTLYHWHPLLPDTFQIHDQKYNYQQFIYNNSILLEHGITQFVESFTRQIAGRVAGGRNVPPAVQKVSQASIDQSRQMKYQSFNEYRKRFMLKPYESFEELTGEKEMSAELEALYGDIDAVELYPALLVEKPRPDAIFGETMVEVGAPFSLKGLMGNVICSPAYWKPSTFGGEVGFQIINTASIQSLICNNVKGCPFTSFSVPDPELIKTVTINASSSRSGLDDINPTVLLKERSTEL

[19] = test system: PGE2 production; assay: PGE2 production by A549 cells; type: cell-based, human
[20] = Gastrointestinal toxicity in rats
[21] = test system: Salmonella typhimurium (TA98 and TA100); assay: Salmonella plate incorporation mutagenicity assay; conditions: 1.5 to 5000 μg/plate, with or without rat liver S9
[22] = test system: liver esterases; assay: Stability of PTI to purified porcine liver esterases; conditions: pig, half-life
[23] = test system: porcine liver esterases; assay: as above; conditions: 4 IU/ml porcine liver esterase, 20 min
[24] = Stability of PTI in complete media containing 10% serum; conditions: after 24 h
[25] = Pharmacokinetics of PTI and indomethacin, single i.p. dose
[26] = test system: U87 cells; assay: 24-h growth inhibition of U87 glioblastoma cells; type: cell-based; conditions: Homo sapiens, U-87 MG; U87, 24 h
Experimental: U87 cells were treated with sulindac and ibuprofen as well as with the compounds. U87 is a human primary glioblastoma cell line, formally known as U-87 MG. This cell line has epithelial morphology, and is one of the most frequently used glioblastoma cell lines.

[27] = test system: A431 skin cancer cells; assay: Cellular uptake in A431 cells (HPLC); conditions: 100 μM for 1 h
[28] = test system: skin papillomas; assay: DMBA/TPA-induced skin papillomas in FVB mice; type: in vivo
Source text: This initiation-promotion protocol leads to papillomas by wk 10, and in a fraction of the mice to SCC by wk 20. […] Criteria similar to those used for human papilloma classification were applied to assess disease progression: hyperplasia→papilloma (Pap 1-3)→microinvasive SCC (M1-3)→invasive SCC. On wk 20, the study was terminated.

[29] = test system: β-catenin signaling; assay: β-catenin transcriptional activity (TOPflash) in HEK293T cells; type: cell-based; conditions: 5 μM each; control 1.23±0.11
[30] = test system: U87 glioblastoma cells; assay: Apoptosis (annexin V), PV and PGIA; type: cell-based, human; conditions: 24 h; PGIA 200 μM, PV 40 μM, alone or together
Experimental: Apoptosis: Cells (1.0×10^5 cells/well) were treated with or without PV, PGIA or valproic acid (VPA) for 24 or 48 h. After treatment, cells were trypsinized, stained with Annexin V-FITC (100× dilution, Invitrogen) and propidium iodide (PI) 0.5 μg/ml and the fluorescence intensity was analyzed by FACScaliber.

[31] = 200 mg/kg once a week for 8 weeks

CCOP(=O)(OCC)OCCCCNC(=O)C(C)c1ccc(CC(C)C)cc1 (stereo not drawn) [Phospho-ibuprofen amide 105, Phosphoric acid diethyl ester 4-[2-(4-isobutyl-phenyl)-propionylamino]-butyl ester]
blood and tissue levels of intact compound ([1]; compared with corresponding carboxylic ester compound): significant blood and tissue levels of intact compound | biodistribution in major organs ([1]; liposomal, single 200 mg/kg i.v., 1 h): preferentially accumulated in lungs | reduction based on lung tumor weight / lung weight [2, 31]: 80% | reduction of lung cancer based on fluorescence [2, 31]: 95% | lung cancer on fluorescence images of lungs ([2]; liposomal, I.V.): essentially eliminated lung cancer | latency values (mean±SD) [3]: 3.80 ± 0.46 s | tumor growth inhibition [4]: 33.8% | tumor growth inhibition [5]: 51.5%

CCOP(=O)(OCC)OCCc1ccc(OC(=O)Cc2c(C)n(C(=O)c3ccc(Cl)cc3)c3ccc(OC)cc23)cc1 [PTI, [1-(4-Chloro-benzoyl)-5-methoxy-2-methyl-1H-indol-3-yl]-acetic acid 4-[2-(diethoxy-phosphoryloxy)-ethyl]-phenyl ester]
IC50 [6]: 23 µM | IC50 [7]: 87 µM | decrease of proportion of BrdU positive cells [8]: 96% | proportion of cells in G0/G1 phase [9]: 69.7% | annexin V+ cells ([10]; 1.5×IC50): 12.3% | annexin V+ cells ([10]; 2×IC50): 71.4% | cellular uptake, fold greater than indomethacin ([11]; 6 h incubation, 50 to 200 μM): about 200 fold | cellular uptake, fold greater than indomethacin ([11]; 16 h): about 230 fold | cardiotoxicity [12]: No differences in cardiotoxicity | reduction of tumor volume ([13]; 10 mg/kg/d): 68% | reduction of tumor volume ([13]; 15 mg/kg/d): 91% | reduction of tumor growth [14]: 69% | cell proliferation (PCNA) ([15]; PTI-treated tumors, controls 59.7±7.5%): 40.2±4.5% | apoptosis index (TUNEL) ([15]; control 3.3±0.3%): 5.8±1.2% | increase of apoptosis index ([15]; vs control): 75.8% | decrease of p-p65 Ser276 levels in tumor xenografts [16]: 90.0% | IC50 [17]: 905 µM | selectivity for COX-2 over COX-1 [18]: 12.6 fold | IC50 ([18]; purified COX-2): 71.7 µM | PGE2 levels induced by the calcium ionophore A23187 [19]: prevented the increase in PGE2 levels | reduction in gastrointestinal toxicity ([20]; PTI vs indomethacin): 60% | rats that developed ulcers ([20]; gavage 4 days, indomethacin 4.75 mg/kg/day, PTI 10 mg/kg/day): 40% | genotoxicity (reverse mutations) [21]: no significant genotoxicity | half-life ([22]; 2 IU/ml esterase): 5 min | half-life ([22]; 4 IU/ml esterase): 2 min | intact PTI remaining [23]: approximately 20% | hydrolyzed [24]: 40% | Cmax ([25]; mouse, in vivo, ip, 100 mg/kg): 46 µM | plasma detectability of PTI ([25]; single i.p. 100 mg/kg PTI): undetectable at 4 h | time of maximum concentration of PTI ([25]; single i.p. 100 mg/kg PTI): 2 h

CCOP(=O)(OCC)OCCCCOC(=O)C(C)c1ccc(CC(C)C)cc1 (stereo not drawn) [PI 132]
latency values (mean±SD) [3]: 8.53 ± 0.81 s | IC50 [26]: 98 µM | fold increase of cellular level over the other two compounds [27]: at least 300 fold | cellular content (cellular extract) ([27]; limit of detection 2.5 pmol): 750 pmol

NCCC[C@](N)(C(=O)O)C(F)F [DFMO, α-difluoromethylornithine, reference compound]
papilloma multiplicity, oral administration ([28]; oral): failed to reduce papilloma multiplicity | reduction of tumor burden (average tumor volume/mouse) ([28]; topical): ~90% | thickness of the epidermis ([28]; topical): partial effect | reduction of tumor number (papillomas/mouse) ([28]; topical application): merely stabilized disease progression | luciferase/renilla activity [29]: 1.18±0.01

CCCC(CCC)C(=O)OCCCCOP(=O)(OCC)OCC [PV]
fold-increase of annexinV (+) cells [30]: 3.0 fold
